Data on eleven compounds can be found in US20260027121A1, “LIGAND ACTING ON ADENOSINE RECEPTORS AND COMPOSITION COMPRISING SAME FOR PREVENTION, ALLEVIATION, OR TREATMENT OF OBESITYS” (FUTURE MEDICINE CO., LTD., priority 2022, published 2026).

Assay [1] addresses T1, A3 adenosine receptor (hA3AR) (Homo sapiens, UniProt P0DMS8).
T1 construct: expressed in transfected cells; host or cells: HEK293 (adherent, stably transfected)
T1 sequence (P0DMS8 1-318): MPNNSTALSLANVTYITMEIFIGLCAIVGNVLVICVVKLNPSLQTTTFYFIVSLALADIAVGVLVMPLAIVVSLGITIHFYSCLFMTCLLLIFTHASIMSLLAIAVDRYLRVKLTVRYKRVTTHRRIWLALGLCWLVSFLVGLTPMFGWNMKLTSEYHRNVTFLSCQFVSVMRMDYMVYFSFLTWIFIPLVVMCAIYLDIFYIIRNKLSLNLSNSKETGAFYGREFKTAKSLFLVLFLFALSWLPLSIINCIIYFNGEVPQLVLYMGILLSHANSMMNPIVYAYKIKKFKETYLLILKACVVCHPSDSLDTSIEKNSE
Briefly: Radioligand binding affinity, adherent HEK293 cells stably transfected with hAR cDNA. Particulars: normalized to NECA 10 μM. As for the experimental part:
(§1) The binding affinity of LJ-4378 and derivatives thereof to A2AAR and A3AR is as shown in the following [Table 1]. All binding affinity experiments were performed using adherent HEK293 cells stably transfected with cDNAs encoding appropriate hAR bonds, and were performed using 1 nM [3H]17, 10 nM [3H]18, or 0.2 nM [3H]16 as radioligands for A2A and A3AR, respectively. Values were normalized to a non-specific binder 5′-N-ethylcarboxamidoadenosine (NECA, 10 μM).

The target in assay [2] is T2, A2A adenosine receptor (hA2AR) (Homo sapiens, UniProt P29274).
T2 construct: expressed in transfected cells; host or cells: HEK293 (adherent, stably transfected)
T2 sequence (P29274 whole entry): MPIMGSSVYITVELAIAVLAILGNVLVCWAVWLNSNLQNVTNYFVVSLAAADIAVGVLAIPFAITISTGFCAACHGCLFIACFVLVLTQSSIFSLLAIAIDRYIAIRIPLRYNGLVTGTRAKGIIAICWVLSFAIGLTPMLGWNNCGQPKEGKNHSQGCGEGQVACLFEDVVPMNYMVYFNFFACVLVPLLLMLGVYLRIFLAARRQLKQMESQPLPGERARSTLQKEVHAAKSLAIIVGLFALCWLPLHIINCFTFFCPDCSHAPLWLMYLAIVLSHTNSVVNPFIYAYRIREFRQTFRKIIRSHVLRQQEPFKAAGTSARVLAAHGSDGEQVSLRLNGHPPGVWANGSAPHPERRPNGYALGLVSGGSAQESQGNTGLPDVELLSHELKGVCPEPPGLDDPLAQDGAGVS
Described as above. The settings on record: normalized to NECA 10 μM. How it is done: as §1

A further assay relates to CIDEA reporter mice. Briefly: qPCR of brown adipocyte markers in brown adipose tissue. Format: in vivo, mouse. Particulars: BAT, 1 mg kg-1/day, 10 days. How it is done:
Mice were treated with vehicle (CTL), LJ-4378 (LJ, 1 mg kg-1/day), […] (CGS21680, 1 mg kg-1/day), or A3 antagonist (LJ-4433, 1 mg kg-1/day) for 10 days. (A-B) Representative bioluminescence in dorsal and lateral positions (n=3, mean±SEM, ** p<0.01, **** p<0.0001). (C) Representative ex vivo fluorescence image and quantification of fluorescence intensity of BAT and iWAT (n=3, mean±SEM, ** p<0.01, **** p<0.0001). (D) qPCR analysis of UCP1 and CIDEAM RNA expression levels of brown adipose tissue (BAT) (n=3, mean±SEM, * p<0.05, ** p<0.01, *** p<0.001).
qPCR analysis was performed to investigate the adenosine receptor expression levels in brown adipocytes differentiated from immortalized brown adipocyte precursor cells. Primers used for the qPCR analysis are listed in the following [Table 3].

The test system of assay [3] is brown adipocytes. Description: Lipolysis: glycerol and free fatty acid levels in conditioned medium. Format: cell-based, mouse. The settings on record: 0.1 μM, 24 hours. How it is done:
(§2) Adipocyte precursor cells capable of differentiating into brown adipocytes were isolated from mouse brown adipose tissue. Cells were cultured in Dulbecco's modified Eagle's medium (Welgene, LM001-07) containing 10% fetal bovine serum (FBS, Gibco, 16000044) and 1% Penicillin Streptomycin (Welgene, LS202-02) at 37° C. in a humidified atmosphere with 5% CO2. When the cells reached about 100% confluency, the cells were exposed to a differentiation medium supplemented with 2.5 mM isobutyl methylxanthine (IBMX, Cayman, I5879), 0.125 mM indomethacin (Cayman, 70270), 1 μM dexamethasone (Cayman), 1 μg/mL insulin (Sigma, I9278), and 1 nM triiodothyronine (T3, Cayman, 6028) for 3 days for adipogenesis. Then, the cells were maintained in a growth medium containing 1 μg/mL insulin and 1 nM triiodothyronine (T3) for 3 days.
The free fatty acid (FFA) levels in the medium were measured using an NEFA reagent (WAKO, 436-91693) according to the manufacturer's product protocol.
Glycerol and free fatty acid (FFA) levels in a medium were measured using a glycerol reagent (Sigma Aldrich, F6428) and a NEFA reagent (WAKO, 436-91693) according to the manufacturer's product protocols.

For assay [4], the system named is brown adipocytes. Briefly: Immunoblot of PKA downstream proteins (P-HSL, P-CREB) in brown adipocytes. The format is cell-based, mouse. The settings on record: 0.1 μM, 24 hours, FIG. 3D. As for the experimental part: as §2
(§3) In the case of Western blots, the primary antibodies used for Western blots are summarized in [Table 2] above. An anti-rabbit horseradish peroxidase antibody (1:3000, Thermo Fisher, 31460) and an anti-mouse horseradish peroxidase antibody (1:3000, Jackson, 115-035-174) were used as secondary antibodies. All antibodies were diluted in a blocking buffer (5% skimmed milk or 5% bovine serum albumin in TBST). Western blot images were acquired using a Fusion Solo chemiluminescence imaging system (Vilber Lourmat) and analyzed with Evolution Capt software (version 17.03). NIH ImageJ software was used for quantification.

For assay [5], the system named is brown adipocytes. Description: Immunoblot of mitochondrial proteins and UCP1 in brown adipocytes. Format: cell-based, mouse. The settings on record: 0.1 μM, 24 hours, FIG. 4D. How it is done:
as §2, §3

As to `CCC#Cc1nc(NCc2cccc(Cl)c2)c2ncn([C@@H]3SC[C@@H](O)[C@H]3O)c2n1` [Compound 9h, (2R,3R,4S)-2-(2-(but-1-yn-1-yl)-6-((3-chlorobenzyl)amino)-9H-purin-9-yl)tetrahydrothiophene-3,4-diol], the Ki in assay [1] came out at 3.8 nM; in assay [2], 239 nM.
As to `CCNC(=O)[C@H]1O[C@@H](n2cnc3c(N)nc(NCCc4ccc(CCC(=O)O)cc4)nc32)[C@H](O)[C@@H]1O` [CGS21680, reference compound], in the assay on CIDEA reporter mice, the “Cidea mRNA level, fold increase” value amounted to 1.29±0.12 fold and the “Ucp1 mRNA level, fold increase” value is given as 1.72±0.17 fold. Moreover, in the assay on brown adipocytes [3] (FIG. 3B), the “glycerol level in conditioned medium, fold change” value was determined as 1.51±0.08 fold. The “FFA level in conditioned medium, fold change” value in the assay with brown adipocytes [3] (FIG. 3C) came to 1.29±0.09 fold. In the assay on brown adipocytes [4], the “P-CREB, fold increase” value was found to be 2.00±0.11 fold and the “P-HSL, fold increase” value turned out to be 1.54±0.05 fold. In the assay on brown adipocytes [5], the “COXIV, fold increase” value is “increased”; the “MCAD, fold increase” value was “increased”; the “UCP1, fold increase” value is recorded as “increased”.
On to `CC#Cc1nc(NCc2cccc(F)c2)c2ncn([C@@H]3SC[C@@H](O)[C@H]3O)c2n1` [Compound 9b, (2R,3R,4S)-2-(6-((3-fluorobenzyl)amino)-2-(prop-1-yn-1-yl)-9H-purin-9-yl)tetrahydro thiophene-3,4-diol], for which the inhibition constant (Ki) in assay [1] came to 30.5 nM; in assay [2] it was 772 nM.
In the case of `CC#Cc1nc(NCc2cccc(I)c2)c2ncn([C@@H]3SC[C@@H](O)[C@H]3O)c2n1` [Compound 9e, (2R,3R,4S)-2-(6-((3-iodobenzyl)amino)-2-(prop-1-yn-1-yl)-9H-purin-9-yl)tetrahydro thiophene-3,4-diol], the figures for the inhibition constant (Ki) in assay [1] and in assay [2] were 20.1 nM and 121 nM, respectively.
Consider `CCC#Cc1nc(NCc2cccc(I)c2)c2ncn([C@@H]3SC[C@@H](O)[C@H]3O)c2n1` [Compound 9j, (2R,3R,4S)-2-(2-(but-1-yn-1-yl)-6-((3-iodobenzyl)amino)-9H-purin-9-yl)tetrahydrothiophene-3,4-diol], for which the Ki in assay [1] worked out at 8.6 nM; in assay [2], 58 nM.
For `CC#Cc1nc(NCc2cccc(Cl)c2)c2ncn([C@@H]3SC[C@@H](O)[C@H]3O)c2n1` [Compound 9c, (2R,3R,4S)-2-(6-((3-chlorobenzyl)amino)-2-(prop-1-yn-1-yl)-9H-purin-9-yl)tetrahydro thiophene-3,4-diol], the results for the Ki in assay [1] and in assay [2] were 1.5 nM and 221 nM, respectively.
The matching figures for `CCC#Cc1nc(NCc2cccc(F)c2)c2ncn([C@@H]3SC[C@@H](O)[C@H]3O)c2n1` [Compound 9g, (2R,3R,4S)-2-(2-(but-1-yn-1-yl)-6-((3-fluorobenzyl)amino)-9H-purin-9-yl)tetrahydrothiophene-3,4-diol]: 9.5 nM and 914 nM.
Turning to `CC#Cc1nc(NCc2cccc(Br)c2)c2ncn([C@@H]3SC[C@@H](O)[C@H]3O)c2n1` [Compound 9d, (2R,3R,4S)-2-(6-((3-bromobenzyl)amino)-2-(prop-1-yn-1-yl)-9H-purin-9-yl)tetrahydro thiophene-3,4-diol], the Ki was determined as 11.1 nM in assay [1] and 469 nM in assay [2].
The matching figures for `CCC#Cc1nc(NCc2cccc(Br)c2)c2ncn([C@@H]3SC[C@@H](O)[C@H]3O)c2n1` [Compound 9i, (2R,3R,4S)-2-(6-((3-bromobenzyl)amino)-2-(but-1-yn-1-yl)-9H-purin-9-yl)tetrahydrothiophene-3,4-diol]: 0.293 nM and 113 nM.
`CC#Cc1nc(N)c2ncn([C@@H]3SC[C@@H](O)[C@H]3O)c2n1` [Compound 9a, (2R,3R,4S)-2-(6-amino-2-(prop-1-yn-1-yl)-9H-purin-9-yl)tetrahydrothiophene-3,4-diol]: the Ki in assay [1] came to 64.7 nM; in assay [2], 117 nM.
Taken in the same sequence, the figures for `CCC#Cc1nc(N)c2ncn([C@@H]3SC[C@@H](O)[C@H]3O)c2n1` [Compound 9f, (2R,3R,4S)-2-(6-amino-2-(but-1-yn-1-yl)-9H-purin-9-yl)tetrahydrothiophene-3,4-diol] were 67.3 nM and 23.9 nM.
